Measured values reported in PMC11079024, “Identification of a family of species-selective complex I inhibitors as potential anthelmintics” (Nature Communications, 2024).
pIC50: −log10 of the molar value. Several values for one entry are separate records, joined by “and”; a condition that tells them apart may be missing. Identical values can stand only once. Like-named read-outs stand apart in the source and are kept apart here.

Experiments:
[1] = target: C. elegans (N2) complex I (NADH:ubiquinone oxidoreductase) (Caenorhabditis elegans, UniProt P24887+Q93873+Q94360); assay: biochemical; type: biochemical
C. elegans (N2) complex I (NADH:ubiquinone oxidoreductase), sequence (Q94360 17-199): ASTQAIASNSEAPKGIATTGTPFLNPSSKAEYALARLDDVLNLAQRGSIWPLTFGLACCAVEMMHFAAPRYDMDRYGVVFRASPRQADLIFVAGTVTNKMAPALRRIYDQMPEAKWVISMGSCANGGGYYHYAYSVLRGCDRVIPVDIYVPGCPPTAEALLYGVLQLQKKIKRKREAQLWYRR
C. elegans (N2) complex I (NADH:ubiquinone oxidoreductase), sequence (P24887 whole entry): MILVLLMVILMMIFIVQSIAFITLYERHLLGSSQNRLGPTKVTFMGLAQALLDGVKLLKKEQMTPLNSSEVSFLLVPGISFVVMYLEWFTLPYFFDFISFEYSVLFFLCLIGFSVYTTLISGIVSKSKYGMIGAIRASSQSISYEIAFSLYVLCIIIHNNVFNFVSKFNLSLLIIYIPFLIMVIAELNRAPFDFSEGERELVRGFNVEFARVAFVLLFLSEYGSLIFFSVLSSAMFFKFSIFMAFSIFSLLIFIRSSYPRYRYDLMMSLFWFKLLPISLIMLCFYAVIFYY
C. elegans (N2) complex I (NADH:ubiquinone oxidoreductase), sequence (Q93873 31-482): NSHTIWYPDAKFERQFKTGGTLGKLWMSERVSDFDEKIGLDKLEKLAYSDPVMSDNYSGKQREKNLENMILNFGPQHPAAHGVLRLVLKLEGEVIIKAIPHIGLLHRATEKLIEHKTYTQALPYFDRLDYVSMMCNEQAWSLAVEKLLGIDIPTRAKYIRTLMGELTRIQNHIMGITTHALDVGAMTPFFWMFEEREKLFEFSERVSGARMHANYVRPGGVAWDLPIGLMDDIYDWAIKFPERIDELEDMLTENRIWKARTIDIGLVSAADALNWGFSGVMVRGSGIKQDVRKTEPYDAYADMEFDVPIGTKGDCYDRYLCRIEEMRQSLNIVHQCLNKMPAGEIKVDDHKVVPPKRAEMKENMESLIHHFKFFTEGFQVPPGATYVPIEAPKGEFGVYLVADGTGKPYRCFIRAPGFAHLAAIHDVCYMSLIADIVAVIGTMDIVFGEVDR
In short: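 Complex I rate: initial linear slope of A600 over 15 min, expressed as percent of solvent control. Triple freeze-thawed mitochondria (0.2 mg/mL) in KPi pH 7.5, BSA 3 mg/mL, NADH 80 μM, decylubiquinone 60 μM, DCIP 160 μM, antimycin A, KCN.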

[2] = test system: L1 wild-type C. elegans; settings: N2 (wild type), caenorhabditis elegans
[3] = in vitro; settings: human; for viability: HEK293 viability
[4] = wild-type C. elegans, mean of replicates, read-out: in vitro complex I activity relative to solvent control, Mean
[5] = wild-type C. elegans, single replicate, read-out: in vitro complex I activity relative to solvent control, individual replicate

C=C(C)[C@H]1Cc2c(ccc3c2O[C@@H]2COc4cc(OC)c(OC)cc4[C@@H]2C3=O)O1 [Rotenone, reference compound]
activity at 100 µM ([1]; 100 µM compound, relative to solvent control, mean (SEM), read-out: % Activity Complex I): 0%
activity at 100 µM ([1]; 100 μM inhibitor, in vitro activity relative to solvent control, N2 C. elegans mitochondria, single replicate, read-out: CI Activity): 0%
activity at 100 µM ([1]; 100 μM of NPD compound, C. elegans mitochondria, individual biological replicates, read-out: Percent in vitro activity, Complex I (single replicate Rep1-Rep4)): 0%
activity at 100 µM ([1]; 100 μM of NPD compound, C. elegans mitochondria, mean of four biological replicates, read-out: Percent in vitro activity, Complex I (Mean)): 0%
Absorbance DCIP [600nm], complex I ([1]; 30 s, single replicate): 1.265 and 1.244 and 1.248
Absorbance DCIP [600nm], complex I ([1]; 60 s, single replicate): 1.261 and 1.240 and 1.243
Absorbance DCIP [600nm], complex I ([1]; 90 s, single replicate): 1.257 and 1.236 and 1.240
Absorbance DCIP [600nm], complex I ([1]; 120 s, single replicate): 1.252 and 1.232 and 1.237
Absorbance DCIP [600nm], complex I ([1]; 150 s, single replicate): 1.248 and 1.229 and 1.234
Absorbance DCIP [600nm], complex I ([1]; 180 s, single replicate): 1.244 and 1.226 and 1.230
Absorbance DCIP [600nm], complex I ([1]; 210 s, single replicate): 1.240 and 1.223 and 1.227
Absorbance DCIP [600nm], complex I ([1]; 240 s, single replicate): 1.237 and 1.219 and 1.223
Absorbance DCIP [600nm], complex I ([1]; 270 s, single replicate): 1.233 and 1.216 and 1.220 and 1.199
Absorbance DCIP [600nm], complex I ([1]; 300 s, single replicate): 1.229 and 1.212 and 1.216 and 1.196
Absorbance DCIP [600nm], complex I ([1]; 330 s, single replicate): 1.225 and 1.209 and 1.213 and 1.193
Absorbance DCIP [600nm], complex I ([1]; 360 s, single replicate): 1.221 and 1.206 and 1.210 and 1.190
Absorbance DCIP [600nm], complex I ([1]; 390 s, single replicate): 1.218 and 1.203 and 1.206 and 1.187
Absorbance DCIP [600nm], complex I ([1]; 420 s, single replicate): 1.214 and 1.199 and 1.203 and 1.185
Absorbance DCIP [600nm], complex I ([1]; 450 s, single replicate): 1.210 and 1.196 and 1.200 and 1.182
Absorbance DCIP [600nm], complex I ([1]; 480 s, single replicate): 1.206 and 1.193 and 1.197 and 1.179
Absorbance DCIP [600nm], complex I ([1]; 510 s, single replicate): 1.203 and 1.190 and 1.193 and 1.176
Absorbance DCIP [600nm], complex I ([1]; 540 s, single replicate): 1.199 and 1.187 and 1.190 and 1.174
Absorbance DCIP [600nm], complex I ([1]; 570 s, single replicate): 1.195 and 1.183 and 1.187
Absorbance DCIP [600nm], complex I ([1]; 600 s, single replicate): 1.192 and 1.180 and 1.184
Absorbance DCIP [600nm], complex I ([1]; 630 s, single replicate): 1.188 and 1.177 and 1.181
Absorbance DCIP [600nm], complex I ([1]; 660 s, single replicate): 1.185 and 1.174 and 1.177
Absorbance DCIP [600nm], complex I ([1]; 690 s, single replicate): 1.181 and 1.171 and 1.174
Absorbance DCIP [600nm], complex I ([1]; 720 s, single replicate): 1.178 and 1.168 and 1.171
Absorbance DCIP [600nm], complex I ([1]; 750 s, single replicate): 1.174 and 1.164 and 1.168
Absorbance DCIP [600nm], complex I ([1]; 780 s, single replicate): 1.171 and 1.161 and 1.165
Absorbance DCIP [600nm], complex I ([1]; 810 s, single replicate): 1.167 and 1.158 and 1.162
Absorbance DCIP [600nm], complex I ([1]; 840 s, single replicate): 1.164 and 1.155 and 1.159
Absorbance DCIP [600nm], complex I ([1]; 870 s, single replicate): 1.161 and 1.152 and 1.156
Absorbance DCIP [600nm], complex I ([1]; 900 s, single replicate): 1.157 and 1.149 and 1.153
remaining activity at 0.0001 µM [1, 4]: 95.7%
remaining activity at 0.0001 µM [1, 5]: 90.6%
remaining activity at 0.0005 µM [1, 4]: 104%
remaining activity at 0.0005 µM [1, 5]: 108%
remaining activity at 0.001 µM ([1]; dose 0.001 µM, wild-type C. elegans, mean of replicates, read-out: in vitro complex I activity relative to solvent control, Mean): 104%
remaining activity at 0.0025 µM [1, 4]: 110%
remaining activity at 0.0025 µM [1, 5]: 108%
remaining activity at 0.005 µM [1, 4]: 101%
remaining activity at 0.005 µM [1, 5]: 97%
remaining activity at 0.013 µM [1, 4]: 90.6%
remaining activity at 0.013 µM [1, 5]: 89.2%
remaining activity at 0.025 µM ([1]; dose 0.025 µM, wild-type C. elegans, mean of replicates, read-out: in vitro complex I activity relative to solvent control, Mean): 89.6%
remaining activity at 0.063 µM [1, 4]: 27%
remaining activity at 0.063 µM [1, 5]: 21.5%
remaining activity at 0.125 µM [1, 4]: 26.8%
remaining activity at 0.125 µM [1, 5]: 17.8%
remaining activity at 0.313 µM ([1]; dose 0.313 µM, wild-type C. elegans, mean of replicates, read-out: in vitro complex I activity relative to solvent control, Mean): 0.682%
remaining activity at 0.625 µM ([1]; dose 0.625 µM, wild-type C. elegans, mean of replicates, read-out: in vitro complex I activity relative to solvent control, Mean): 0.888%
remaining activity at 1.5 µM ([1]; dose 1.5 µM, wild-type C. elegans, mean of replicates, read-out: in vitro complex I activity relative to solvent control, Mean): 7.71%
remaining activity at 3 µM ([1]; dose 3 µM, wild-type C. elegans, mean of replicates, read-out: in vitro complex I activity relative to solvent control, Mean): 5.32%
remaining activity at 15 µM ([1]; dose 15 µM, wild-type C. elegans, mean of replicates, read-out: in vitro complex I activity relative to solvent control, Mean): 5.62%
remaining activity at 37.5 µM ([1]; dose 37.5 µM, wild-type C. elegans, mean of replicates, read-out: in vitro complex I activity relative to solvent control, Mean): 6.72%
remaining activity at 75 µM ([1]; dose 75 µM, wild-type C. elegans, mean of replicates, read-out: in vitro complex I activity relative to solvent control, Mean): 3.64%
pIC50 ([1]; wild-type (N2) mitochondria, read-out: C. elegans Complex I IC50): 7.35
LC50 [2]: 860 nM
CC50 [3]: < 390 nM
viability ([3]; dose 0.4 µM, Mean of replicates): 33.2%
viability ([3]; dose 0.8 µM, Mean of replicates): 34.5%
viability ([3]; dose 0.8 µM, individual replicate (Rep)): 37.4%
viability ([3]; dose 3.1 µM, Mean of replicates): 47%
viability ([3]; dose 3.1 µM, individual replicate (Rep)): 46.6%
viability ([3]; dose 6.3 µM, Mean of replicates): 32.5%
viability ([3]; dose 6.3 µM, individual replicate (Rep)): 30.9%
viability ([3]; dose 12.5 µM, Mean of replicates): 26.9%
viability ([3]; dose 12.5 µM, individual replicate (Rep)): 27.1%
viability ([3]; dose 25 µM, Mean of replicates): 21.4%
viability ([3]; dose 25 µM, individual replicate (Rep)): 20.1%
viability ([3]; dose 50 µM, Mean of replicates): 20.1%
viability ([3]; dose 50 µM, individual replicate (Rep)): 20.4%
